# Read-outs that look alike come from different tables or passages of the source.
# Experiments:
# [1] = in vivo; cited from earlier work
# [2] = in vivo; cited from earlier work; remark: listed apart in the source
# [3] = Bioavailability and release of N-0923 from the depot composition per the invention; assay type: in vivo
# Source text: The composition according to the invention is particularly preferred for the administration of N-0923 hydrochloride, and especially so in a formulation with crystalline N-0923 hydrochloride. The latter can be produced for instance as described in U.S. Pat. No. 4,564,628.
# [4] = intravenously injected aqueous solutions; tests with animals; cited from earlier work
# [5] = subcutaneous administration; tests with animals; cited from earlier work
# [6] = distinct first-pass effect; cited from earlier work
# [7] = cited from earlier work
compound,measurement,setting,value
proinsulin C-peptide,half-time value,[1],about 30 minutes
O=c1[nH]cc(F)c(=O)[nH]1 [5-fluorouracil],half-time value,[2],10 to 20 min
"CCCN(CCc1cccs1)[C@H]1CCc2c(O)cccc2C1 [N-0923, S(−)-2-(N-propyl-N-2-thienylerhyl-amino)-5-hyroxytetralin]",relationship of plasma agent levels to the dose introduced in the body,[3]; depot composition,linear relationship
same,time over which the active agent is released from the depots in the body in a therapeutically effective amount,[3]; depot composition,over 48 hours
same,bioavailability,"[3]; plasma, depot composition with N-0923, read-out: bioavailability of the pharmaceutical composition per the invention",~70%
same,half-time value,[4],52 min
same,half-time value,[5],60 to 70 min
same,bioavailability after oral administration,[6],about 0.5%
N[C@@H](Cc1ccc(O)c(O)c1)C(=O)O [levodopa],half-time in the plasma,[7],1 to 3 h

# Reference: US7309497B2, “Injectable pharmaceutical composition for systematic administration of pharmacologically active ingredients” (Schwarz Pharma AG, priority 2000, dated 2007)
